# Experimental data from US20120029075A1, “COMPOSITIONS CONTAINING C1 TO C7 ORGANIC ACID MONOGLYCERIDES AND GLYCEROL, THEIR PREPARATION AND USE AS ANTIBACTERIALS AND ANTI-MOULD AGENTS” (priority 2009, published 2012).
# Like-named read-outs stand apart in the source and are kept apart here.
# Key:
# [1] = test system: Porcine Salmonella typhimurium; test: In vitro antibacterial action, appearance of growth in Brain Heart Infusion, pH 6 (Tables 3 and 4); format: cell-based; conditions: for Incubation time and appearance of growth: pH 6, inoculation 10^5, Brain Heart Infusion, 3 replications; for Concentration exhibiting inhibitory potency (no growth) in all three replicates: porcine Salmonella typhimurium, tested 5000-40000 ppm
# Aspergillus spp = test: In vitro sensitivity test towards filamentous fungi (Example 5), Aspergillus; format: cell-based; conditions: 5 ml fungal suspension + 5 ml product, 24 hours at 20±4° C.; read after 5 days; control 450000
# Description: (§1) In Vitro Sensitivity Tests towards Filamentous Fungi (Moulds)
# (§2) Strains of Aspergillus spp, Penicillium spp and Fusarium spp were utilized for the test, having been isolated and identified during diagnostic activity at the IZSLER section of Forli from complete feeds used in the chicken industry. To prepare the inoculum, mycelium of pure cultures of the tested strains was collected using a swab. The material thus collected was dissolved in a culture broth (BHI—Brain Heart Infusion). 5 ml of the fungal suspension and an equal amount of the product to be tested were placed in contact in a test tube. The test tube was incubated at 20±4° C. for 24 hours.
# (§3) After this time period, the fungal suspension was then seeded and enumerated.
# (§4) The control suspension was obtained by placing 5 ml of fungal suspension+5 ml of diluent (Ringer's lactate) into a test tube. Reading of the tests was carried out after a 5 day incubation period at 20±4° C.
# Fusarium spp = test: In vitro sensitivity test towards filamentous fungi (Example 5), Fusarium; format: cell-based; conditions: 5 ml fungal suspension + 5 ml product, 24 hours at 20±4° C.; read after 5 days; control 310000
# Description: as §1, §2, §3, §4
# Penicillium spp = test: In vitro sensitivity test towards filamentous fungi (Example 5), Penicillium; format: cell-based; conditions: 5 ml fungal suspension + 5 ml product, 24 hours at 20±4° C.; read after 5 days; control 97000
# Description: as §1, §2, §3, §4
# [2] = test system: Clostridium perfringens CP27; format: cell-based; conditions: for Incubation time and appearance of growth: inoculation 10^5, Brain Heart Infusion, 3 replications; for Concentration exhibiting inhibitory potency (no growth) in all three replicates: Clostridium perfringens, tested 500-4000 ppm
# Salmonella typhimurium = test: Antibacterial potency (Table 1), Salmonella typhimurium count
# Campylobacter jejuni = test: Antibacterial potency (Table 1), Campylobacter jejuni count
# E. coli [3] = test: Antibacterial potency (Table 1), E. coli count; format: cell-based
# E. coli [4] = test: In vitro antibacterial action, appearance of growth in Brain Heart Infusion, pH 5 (Table 5); conditions: for Incubation time and appearance of growth: pH 5, inoculation 10^5, Brain Heart Infusion, 3 replications
# [5] = pH 4.5, conc. used: Propionic acid 1:909, Butyric Acid 1:1000, Monobutyrin 43 1:100
# [6] = pH 7, conc. used: Propionic acid 1:909, Butyric Acid 1:1000, Monopropionin 43 1:109, Monobutyrin 43 1:100
compound,measurement,setting,value
CC(=O)O [Acetic acid],Incubation time and appearance of growth,"[1]; 5000 ppm, Table 3",+ (+ for 24 hr)
same,Incubation time and appearance of growth,"[1]; 10000 ppm, Table 3",+ (+ for 24 hr)
same,Incubation time and appearance of growth,"[1]; 15000 ppm, Table 3",+ (+ for 24 hr)
same,Incubation time and appearance of growth,"[1]; 20000 ppm, Table 3",no growth
same,Incubation time and appearance of growth,"[1]; 25000 ppm, Table 3",no growth
same,Incubation time and appearance of growth,"[1]; 30000 ppm, Table 3",no growth
same,Incubation time and appearance of growth,"[1]; 40000 ppm, Table 3",no growth
same,Concentration exhibiting inhibitory potency (no growth) in all three replicates,[1]; acetic acid series,"≥ 20,000 ppm"
CCC(=O)O.N [Ammonium propionate],ASPERGILLUS spp. count,Aspergillus spp,1000 cfu/ml
same,FUSARIUM spp. count,Fusarium spp,500 cfu/ml
same,PENICILLIUM spp. count,Penicillium spp,100 cfu/ml
CCCC(=O)O [Butyric Acid],Incubation time and appearance of growth,[2]; 500 ppm,+ (+ for 24 hr)
same,Incubation time and appearance of growth,[2]; 1000 ppm,+ (+ for 24 hr)
same,Incubation time and appearance of growth,[2]; 1500 ppm,+ (+ for 24 hr)
same,Incubation time and appearance of growth,[2]; 2000 ppm,++ (++ for 37 hr)
same,Incubation time and appearance of growth,[2]; 2500 ppm,++ (++ for 37 hr)
same,Incubation time and appearance of growth,[2]; 3000 ppm,no growth
same,Incubation time and appearance of growth,[2]; 4000 ppm,no growth
same,Concentration exhibiting inhibitory potency (no growth) in all three replicates,[2],≥ 3000 ppm
same,Salmonella typhimurium (cfu/ml),Salmonella typhimurium; [5],25 × 10^3 cfu/ml
same,Salmonella typhimurium (cfu/ml),Salmonella typhimurium; [6],65 × 10^4 cfu/ml
same,Campylobacter jejuni (cfu/ml),Campylobacter jejuni; [5],2 × 10^1 cfu/ml
same,Campylobacter jejuni (cfu/ml),Campylobacter jejuni; [6],18 × 10^3 cfu/ml
same,E. coli (cfu/ml),E. coli [3]; [5],78 × 10^4 cfu/ml
same,E. coli (cfu/ml),E. coli [3]; [6],106 × 10^4 cfu/ml
O=C(O)/C=C/C(=O)O [Fumaric acid],Incubation time and appearance of growth,E. coli [4]; 10000 ppm,+ (+ for 24 hr)
same,Incubation time and appearance of growth,E. coli [4]; 20000 ppm,+ (+ for 24 hr)
same,Incubation time and appearance of growth,E. coli [4]; 40000 ppm,+ (+ for 24 hr)
same,Incubation time and appearance of growth,E. coli [4]; 60000 ppm,++ (++ for 37 hr)
same,Incubation time and appearance of growth,E. coli [4]; 80000 ppm,++ (++ for 37 hr)
same,Incubation time and appearance of growth,E. coli [4]; 90000 ppm,no growth
same,Incubation time and appearance of growth,E. coli [4]; 100000 ppm,no growth
same,Concentration exhibiting inhibitory potency (no growth) in all three replicates,"E. coli [4]; E. coli, tested 10000-100000 ppm","≥ 90,000 ppm"
CCC(=O)O [Propionic acid],ASPERGILLUS spp. count,Aspergillus spp,300 cfu/ml
same,Salmonella typhimurium (cfu/ml),Salmonella typhimurium; [5],42 × 10^3 cfu/ml
same,Salmonella typhimurium (cfu/ml),Salmonella typhimurium; [6],11 × 10^4 cfu/ml
same,Campylobacter jejuni (cfu/ml),Campylobacter jejuni; [5],14 × 10^1 cfu/ml
same,Campylobacter jejuni (cfu/ml),Campylobacter jejuni; [6],33 × 10^3 cfu/ml
same,E. coli (cfu/ml),E. coli [3]; [5],13 × 10^4 cfu/ml
same,E. coli (cfu/ml),E. coli [3]; [6],54 × 10^4 cfu/ml
same,FUSARIUM spp. count,Fusarium spp,300 cfu/ml
same,PENICILLIUM spp. count,Penicillium spp,<100 cfu/ml
Butyric acid monoglycerides,Incubation time and appearance of growth,[2]; 500 ppm,+ (+ for 24 hr)
same,Incubation time and appearance of growth,[2]; 1000 ppm,+ (+ for 24 hr)
same,Incubation time and appearance of growth,[2]; 1500 ppm,+ (+ for 24 hr)
same,Incubation time and appearance of growth,[2]; 2000 ppm,+ (+ for 24 hr)
same,Incubation time and appearance of growth,[2]; 2500 ppm,+ (+ for 24 hr)
same,Incubation time and appearance of growth,[2]; 3000 ppm,+ (+ for 24 hr)
same,Incubation time and appearance of growth,[2]; 4000 ppm,+ (+ for 24 hr)
same,Concentration exhibiting inhibitory potency (no growth) in all three replicates,[2],do not exhibit any inhibitory potency
Formic acid monoglycerides,Incubation time and appearance of growth,"[1]; 5000 ppm, Table 4",+ (+ for 24 hr)
same,Incubation time and appearance of growth,"[1]; 10000 ppm, Table 4",+ (+ for 24 hr)
same,Incubation time and appearance of growth,"[1]; 15000 ppm, Table 4",+ (+ for 24 hr)
same,Incubation time and appearance of growth,"[1]; 20000 ppm, Table 4",+ (+ for 24 hr)
same,Incubation time and appearance of growth,"[1]; 25000 ppm, Table 4",no growth
same,Incubation time and appearance of growth,"[1]; 30000 ppm, Table 4",no growth
same,Incubation time and appearance of growth,"[1]; 40000 ppm, Table 4",no growth
same,Concentration exhibiting inhibitory potency (no growth) in all three replicates,[1]; formic acid series,"≥ 25,000 ppm"
